Measured values from US7067622B2, “Method of the solid phase synthesis of pyrrole-imidazole polyamide” (Japan Science and Technology Agency, priority 2001, dated 2006).

Test system: DNA fragment of 450 mer
Test: DNA alkylation experiment analysed by polyacrylamide gel electrophoresis
Assay type: biochemical
Experimental: (1) An DNA alkylation experiment was conducted using the above-synthesized Ac-Im-Py-β-ala-CO-Du86.
(2) A similar experiment was conducted by using Im-Im-β-ala-Py-Py-β-ala-CO-Du86. In this case, it was clarified that two imidazole portions recognized guanine in a DNA to cause a sequence-specific DNA alkylation.
(3) A similar experiment was conducted by using Ac-Im-Py-Py-γ-butyl-Py-Py-β-ala-Du86. A pyrrole-imidazole polyamide portion of this compound has a hairpin structure, and one molecule of this compound can recognize both of double strands of a DNA. Though it is known that a Py-Py pair selectively recognizes AT or TA, a Im-Py pair selectively recognizes GC, and a Py-Im pair selectively recognizes CG when the hairpin compound is combined with a DNA in accordance with the Dervan's rule, this compound includes a new pair of β-alanine pair-Im for the molecular recognition. Therefore, a new molecular recognition rule can be discovered using this compound. Accordingly, a DNA alkylation experiment was conducted to confirm the possibility. Results of the experiment are shown in FIG. 3 (DNA: pUC18III 70 nM; Reagent Concentration: 10 nM to 500 nM, 5 samples; Reaction Conditions: sodium phosphate buffer solution (1.46 mM), 37° C., 8 hours).

[1] = DNA fragment of 450 mer, polyacrylamide gel electrophoresis (FIG. 1, FIG. 2)

For `COC(=O)c1c(C)[nH]c2c1[C@]13C[C@H]1CN(C(=O)CCNC(=O)c1cc(NC(=O)c4cc(NC(=O)CCCNC(=O)c5cc(NC(=O)c6cc(NC(=O)c7cc(NC(C)=O)cn7C)cn6C)cn5C)cn4C)cn1C)C3=CC2=O` [Ac-Im-Py-Py-γ-butyl-Py-Py-β-ala-Du86, Ac-Im-Py-Py-γ-butyl-Py-Py-β-ala-CO-Du86], the “DNA sequence recognized and base alkylated (sequence-specific DNA alkylation)” value (DNA: pUC18III 70 nM, reagent 10 nM to 500 nM, sodium phosphate buffer solution (1.46 mM), 37° C., 8 hours (FIG. 3)) was “recognizes 5′-(A/T)(A/T)(A/T)C(A/G)-3′ portion to selectively alkylates adenine of the 3′-end”.

With `COC(=O)c1c(C)[nH]c2c1C13CC1CN(C(=O)CCNC(=O)c1cc(NC(=O)c4nc(NC(C)=O)cn4C)cn1C)C3=CC2=O` (stereo not drawn) [Ac-Im-Py-β-ala-CO-Du86] the “DNA sequence recognized and base alkylated (sequence-specific DNA alkylation)” value [1] was “recognized 5′-TAAA-3′ and alkylated adenine of 3′-end”.

With Im-Im-β-ala-Py-Py-β-ala-CO-Du86 the “DNA sequence recognized and base alkylated (sequence-specific DNA alkylation)” value [1] was “recognized 5′-GGAGAAA-3′ and alkylated adenine of 3′-end”.
